Patent publication US11229636B2, “Substituted tetrahydroquinolinone compounds as ROR gamma modulators” (Aurigene Discovery Technologies Limited, priority 2015, dated 2022)

Experiments:
RORγ LBD = RORγ LBD (Homo sapiens (Human), UniProt P51449); assay: ROR gamma radio-ligand binding assay (3H 25-Hydroxycholesterol competitive displacement, dextran charcoal method); conditions: for inhibition at 1 µM / RORγ ligand binding assay: % inhibition @1 μM: 1 μM compound; for inhibition at 10 µM / RORγ ligand binding assay: % inhibition @ 10 μM: 10 μM compound; for IC50: in range
Sequence of RORγ LBD (P51449 268-518): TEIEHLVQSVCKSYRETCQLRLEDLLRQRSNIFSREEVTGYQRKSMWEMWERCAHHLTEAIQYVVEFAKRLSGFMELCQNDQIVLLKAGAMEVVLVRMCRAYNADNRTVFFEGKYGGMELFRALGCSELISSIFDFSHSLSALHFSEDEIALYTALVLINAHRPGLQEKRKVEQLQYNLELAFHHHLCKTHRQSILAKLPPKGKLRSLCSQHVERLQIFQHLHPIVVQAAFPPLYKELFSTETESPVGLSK
Experimental: Gene corresponding to the ligand binding domain of RORγ (247-497 amino acids) was sub-cloned into pGEX4T1 vector. Transformants of E. coli BL21 (DE3) containing pGEX4T1-RORγ (247-497) were grown to an OD of 0.8 at 37° C. and induced with 0.5 mM isopropyl-β-D-thiogalactopyranoside (IPTG) for 18 hours at 18° C. Cells were harvested and resuspended in 20 mM Tris-HCl (pH 8.5), 0.3 M NaCl, 10% Glycerol, 2 mM β-Me (β-Mercaptoethanol), 2 mM CHAPS, protease inhibitors, 0.6 mM PMSF and Lysozyme. Supernatant of lysate was passed through glutathione sepharose 4B affinity beads (GE health care) pre-equilibrated with 20 mM Tris-HCl (pH 8.5), 0.3 M NaCl, 10% Glycerol, 2 mM β-Me. RORγ was eluted using a gradient of reduced glutathione (3-20 mM). Fractions containing RORγ protein were pooled, concentrated and passed through Superdex 75 gel filtration (GE health care) column equilibrated with 20 mM Na-phosphate pH 8.0, 0.2 M NaCl, 10% glycerol. The peak fractions from gel filtration column were pooled and stored at −80° C. for Binding assay.
ROR gamma radioligand binding was performed using ^3H 25-Hydroxycholesterol in a competitive displacement assay using dextran charcoal method. Using 5 nM ^3H 25-Hydroxycholesterol with 300 ng RORγ LBD (in house expressed in E. coli) along with the compound were incubated in the binding buffer (50 mM HEPES, pH 7.5, 150 mM NaCl, 0.01% BSA and 5 mM MgCl2) for 30 min at room temperature. Then dextran-charcoal mixture (0.5% charcoal: 0.05% dextran) was used for separation and the supernatant was read on the Perkin Elmer Trilux Microbeta counter. Dose response curves were generated for 10 compound concentrations using GraphPad Prism software Version 5 (San Diego, Calif., USA) using non-linear regression curve fit for sigmoidal dose response (variable slope).

[1] = target: ROR gamma ligand binding domain (Homo sapiens (Human), UniProt P51449); assay: ROR gamma luciferase reporter assay (GAL4-ROR gamma LBD, HEK293 cells); format: cell-based; conditions: 48 hours treatment, read-out: RORγ luciferase Reporter assay: IC50 (nM) (in range)
Sequence of ROR gamma ligand binding domain (P51449 269-508): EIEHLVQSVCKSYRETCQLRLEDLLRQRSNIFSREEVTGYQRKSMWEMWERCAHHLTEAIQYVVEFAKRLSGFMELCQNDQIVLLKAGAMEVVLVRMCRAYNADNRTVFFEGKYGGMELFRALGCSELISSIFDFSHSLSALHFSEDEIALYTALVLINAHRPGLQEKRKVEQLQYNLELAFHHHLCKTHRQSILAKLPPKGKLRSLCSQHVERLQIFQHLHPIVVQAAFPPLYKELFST
Summary of the method: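 HEK293 cells were co-transfected with a GAL4 DBD–RORγ LBD fusion (hRluc vector) and a 9xGAL4 UAS luc2P reporter, then treated with compounds for 48 h. Bright-Glo luminescence was used to derive potency.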

Structure (SMILES)	inhibition at 1 µM (RORγ LBD) [%]	inhibition at 10 µM (RORγ LBD) [%]	IC50 (RORγ LBD) [µM]	IC50 [1] [nM]	RORγ ligand binding assay: % inhibition @1 μM (RORγ LBD) [%]	RORγ ligand binding assay: % inhibition @ 10 μM (RORγ LBD) [%]
CCS(=O)(=O)c1ccc(CC(=O)Nc2ccc3c(n2)CC(C)(C)C(c2ccc(O)cn2)C3=O)cc1 (centres unmarked) [Compound 90, 2-(4-(ethylsulfonyl)phenyl)-N-(6-(5-hydroxypyridin-2-yl)-7,7-dimethyl-5-oxo-5,6,7,8-tetrahydroquinolin-2-yl)acetamide]	57	84	0.15 to 0.3	> 500	–	–
CCS(=O)(=O)c1ccc(CC(=O)Nc2cc(C)c3c(n2)CCC(C)(c2ccc(O)cn2)C3=O)cc1 (centres unmarked) [Compound 88, 2-(4-(ethylsulfonyl)phenyl)-N-(6-(5-hydroxypyridin-2-yl)-4,6-dimethyl-5-oxo-5,6,7,8-tetrahydroquinolin-2-yl)acetamide]	86	90	0.15 to 0.3	> 500	–	–
CCS(=O)(=O)c1ccc(CC(=O)Nc2cc(C)c3c(n2)CCC(C)(c2ccc(OC)nn2)C3=O)cc1 (centres unmarked) [Compound 31, 2-(4-(ethylsulfonyl)phenyl)-N-(6-(6-methoxypyridazin-3-yl)-4,6-dimethyl-5-oxo-5,6,7,8-tetrahydroquinolin-2-yl)acetamide]	90	88	< 0.15	< 100	–	–
Cc1cc(NC(=O)Cc2ccc(S(C)(=O)=O)cc2)nc2c1C(=O)C(C)(c1ncccc1O)CC2 (centres unmarked) [Compound 89, N-(6-(3-hydroxypyridin-2-yl)-4,6-dimethyl-5-oxo-5,6,7,8-tetrahydroquinolin-2-yl)-2-(4-(methylsulfonyl)phenyl)acetamide]	53	79	> 0.3	> 500	–	–
CCS(=O)(=O)c1ccc(CC(=O)Nc2cc(C)c3c(n2)CCC(C)(c2ccc(OC)nc2)C3=O)cc1 (centres unmarked) [Compound 17, 2-(4-(ethylsulfonyl)phenyl)-N-(6-(6-methoxypyridin-3-yl)-4,6-dimethyl-5-oxo-5,6,7,8-tetrahydroquinolin-2-yl)acetamide]	92	96	–	< 100	–	–
CCS(=O)(=O)c1ccc(CC(=O)Nc2cc(C)c3c(n2)CCC(C)(c2cc(C)nc(C)n2)C3=O)cc1 (centres unmarked) [Compound 28, N-(6-(2,6-dimethylpyrimidin-4-yl)-4,6-dimethyl-5-oxo-5,6,7,8-tetrahydroquinolin-2-yl)-2-(4-(ethylsulfonyl)phenyl)acetamide]	77	100	0.15 to 0.3	100 to 500	–	–
CCS(=O)(=O)c1ccc(CC(=O)Nc2ccc3c(n2)CCC(C)(c2nccn4cc(C)nc24)C3=O)cc1 (single isomer, unassigned) [compound 106, 2-(4-(ethylsulfonyl)phenyl)-N-(6-methyl-6-(2-methylimidazo[1,2-a]pyrazin-8-yl)-5-oxo-5,6,7,8-tetrahydroquinolin-2-yl)acetamide]	–	–	–	> 500	70	1
CCS(=O)(=O)c1ccc(CC(=O)Nc2cc(C)c3c(n2)CCC(C)(c2nc(C)cc(C)n2)C3=O)cc1 (centres unmarked) [Compound 29, N-(6-(4,6-dimethylpyrimidin-2-yl)-4,6-dimethyl-5-oxo-5,6,7,8-tetrahydroquinolin-2-yl)-2-(4-(ethylsulfonyl)phenyl)acetamide]	84	91	0.15 to 0.3	< 100	–	–
CCS(=O)(=O)c1ccc(CC(=O)Nc2cc(C)c3c(n2)CCC(C)(c2cc(C)nc(C)n2)C3=O)cc1 (single isomer, unassigned) [compound 108, N-(6-(2,6-dimethylpyrimidin-4-yl)-4,6-dimethyl-5-oxo-5,6,7,8-tetrahydroquinolin-2-yl)-2-(4-(ethylsulfonyl)phenyl)acetamide]	–	–	> 0.3	> 500	78	28
CCS(=O)(=O)c1ccc(CC(=O)Nc2ccc3c(n2)CCC(C)(c2nccn4cc(C)nc24)C3=O)cc1 (centres unmarked) [Compound 9, 2-(4-(ethylsulfonyl)phenyl)-N-(6-methyl-6-(2-methylimidazo[1,2-a]pyrazin-8-yl)-5-oxo-5,6,7,8-tetrahydroquinolin-2-yl)acetamide]	90	100	< 0.15	100 to 500	–	–
CCS(=O)(=O)c1ccc(CC(=O)Nc2ccc3c(n2)CC(C)C(c2ncccc2O)C3=O)cc1 (centres unmarked) [Compound 91, 2-(4-(ethylsulfonyl)phenyl)-N-(6-(3-hydroxypyridin-2-yl)-7-methyl-5-oxo-5,6,7,8-tetrahydroquinolin-2-yl)acetamide]	36	100	> 0.3	> 500	–	–
CCS(=O)(=O)c1ccc(CC(=O)Nc2cc(C)c3c(n2)CCC(C)(c2nccc(OC)n2)C3=O)cc1 (centres unmarked) [Compound 21, 2-(4-(ethylsulfonyl)phenyl)-N-(6-(4-methoxypyrimidin-2-yl)-4,6-dimethyl-5-oxo-5,6,7,8-tetrahydroquinolin-2-yl)acetamide]	94	92	0.15 to 0.3	< 100	–	–
CCS(=O)(=O)c1ccc(CC(=O)Nc2cc(C)c3c(n2)CCC(C)(c2ccc(OC)nn2)C3=O)cc1 (single isomer, unassigned) [compound 110, 2-(4-(ethylsulfonyl)phenyl)-N-(6-(6-methoxypyridazin-3-yl)-4,6-dimethyl-5-oxo-5,6,7,8-tetrahydroquinolin-2-yl)acetamide]	–	–	–	< 100	100	81

More lines, now with the values ahead:

inhibition at 1 µM (RORγ LBD) [%]	inhibition at 10 µM (RORγ LBD) [%]	IC50 (RORγ LBD) [µM]	IC50 [1] [nM]	RORγ ligand binding assay: % inhibition @1 μM (RORγ LBD) [%]	RORγ ligand binding assay: % inhibition @ 10 μM (RORγ LBD) [%]	Structure (SMILES)
–	–	< 0.15	100 to 500	100	73	CCS(=O)(=O)c1ccc(CC(=O)Nc2ccc3c(n2)CCC(C)(c2ncc(OC)cn2)C3=O)cc1 (single isomer, unassigned) [compound 112, 2-(4-(ethylsulfonyl)phenyl)-N-(6-(5-methoxypyrimidin-2-yl)-6-methyl-5-oxo-5,6,7,8-tetrahydroquinolin-2-yl)acetamide]
93	82	0.15 to 0.3	100 to 500	–	–	CCS(=O)(=O)c1ccc(CC(=O)Nc2ccc3c(n2)CCC(C)(c2nccn4c(C)cnc24)C3=O)cc1 (centres unmarked) [Compound 49, 2-(4-(ethylsulfonyl)phenyl)-N-(6-methyl-6-(3-methylimidazo[1,2-a]pyrazin-8-yl)-5-oxo-5,6,7,8-tetrahydroquinolin-2-yl)acetamide]
76	95	–	100 to 500	–	–	CCS(=O)(=O)c1ccc(CC(=O)Nc2cc(C)c3c(n2)CCC(C)(c2ccc(OC)cn2)C3=O)cc1 (centres unmarked) [Compound 20, 2-(4-(ethylsulfonyl)phenyl)-N-(6-(5-methoxypyridin-2-yl)-4,6-dimethyl-5-oxo-5,6,7,8-tetrahydroquinolin-2-yl)acetamide]
–	–	> 0.3	> 500	62	19	CCS(=O)(=O)c1ccc(CC(=O)Nc2ccc3c(n2)CCC(C)(c2ncc(OC)cn2)C3=O)cc1 (single isomer, unassigned) [compound 111, 2-(4-(ethylsulfonyl)phenyl)-N-(6-(5-methoxypyrimidin-2-yl)-6-methyl-5-oxo-5,6,7,8-tetrahydroquinolin-2-yl)acetamide]
–	–	–	> 500	26	0	CCS(=O)(=O)c1ccc(CC(=O)Nc2ccc3c(n2)CCC(C)(c2cc(C)nc(C)n2)C3=O)cc1 (single isomer, unassigned) [compound 103, N-(6-(2,6-dimethylpyrimidin-4-yl)-6-methyl-5-oxo-5,6,7,8-tetrahydroquinolin-2-yl)-2-(4-(ethylsulfonyl)phenyl)acetamide]
72	96	0.15 to 0.3	100 to 500	–	–	CCS(=O)(=O)c1ccc(CC(=O)Nc2ccc3c(n2)CCC(C)(c2nccn4ccnc24)C3=O)cc1 (centres unmarked) [Compound 6, 2-(4-(ethylsulfonyl)phenyl)-N-(6-(imidazo[1,2-a]pyrazin-8-yl)-6-methyl-5-oxo-5,6,7,8-tetrahydroquinolin-2-yl)acetamide]
44	88	–	> 500	–	–	CCS(=O)(=O)c1ccc(CC(=O)Nc2ccc3c(n2)CCC(C)(c2ccc(O)nc2)C3=O)cc1 (centres unmarked) [Compound 40, 2-(4-(ethylsulfonyl)phenyl)-N-(6-(6-hydroxypyridin-3-yl)-6-methyl-5-oxo-5,6,7,8-tetrahydroquinolin-2-yl)acetamide]
